Here are results for four compounds from patent US20070027143A1, “Novel substituted 2,3-benzodiazepine derivatives” (priority 2003, published 2007).

SMILES strings stand for the structures. pIC50: −log10 of the molar value. Where two headings read alike, the source gives them in different places.

One series concerns AMPA receptors. Put plainly: Inhibition of AMPA induced spreading depression in isolated chicken retina. It counts as cell-based. Particulars: AMPA (5 μM). The procedure:
(§1) In the first model the spreading depression caused by glutamate agonists (i.e., AMPA or kainate) was studied, while in the second one the transmembrane ion-current induced by the activation of the AMPA/kainate receptors was measured directly.
Inhibition of AMPA Induced “Spreading Depression” in Isolated Chicken Retina—
The AMPA antagonistic effect of the compounds of formula (I) or (II) was studied in the in vitro “spreading depression” model (Sheardown Brain Res. 607:189 (1993)). The AMPA antagonists prolong the latency of the development of the “spreading depression” caused by AMPA (5 μM).

The subject of a further series is AMPA/kainate receptors. The series is described as follows: Inhibition of AMPA induced whole-cell current in acutely isolated cerebellar Purkinje cells (patch clamp). The format is cell-based. To be noted: 5 μM AMPA, read-out: Inhibition of the ion-currents caused by 5 μM AMPA, IC50. The procedure:
as §1
The activity of the compounds of the present invention was studied on acutely isolated cerebellar Purkinje cells by measuring the whole-cell current induced by 5 μM AMPA according for example to the method described by Bleakman et al (Neuropharmacology 12:1689 (1996)).
(In patch-clamp work, channel activity is measured electrically.)

Series [1] concerns CD1 mice. Put plainly: Anticonvulsant activity, maximal electroshock seizure (MES) test. It counts as in vivo. To be noted: Mus musculus, po. On the procedure:
(§2) The anti-seizure activity of some of the compounds of the present invention was measured using the electroshock test (J. Pharmacol. Exp. Ther. 106:319 (1952)) and the results are shown in Table 3. The spasmolytic activity of the compounds of the present invention was investigated by using e.g., pentetrazole (J. Pharmacol. Exp. Ther. 108:168 (1953)), strychnine (J. Pharmacol. Exp. Ther. 129:75 (1960)), bemegrid, nicotine, bicuculline, 4-aminopyridine and mercapto-propionic acid for inducing the clonic-tonic seizures and lethality. The investigated compounds were administered orally in three doses using 10 male CD1 mice/dose, usually 60 min before the induction of seizures.

In series [2] the test system is CD1 mice. The series is described as follows: Anticonvulsant activity, pentetrazole induced seizures. It counts as in vivo. To be noted: Mus musculus; po.; read-out: Pentetrazol ED50. On the procedure:
as §2

The subject of series [3] is CD1 mice. Put plainly: Anticonvulsant activity, strychnine induced seizures. The format is in vivo. Particulars: Mus musculus; po.; read-out: Strychnine ED50. On the procedure: as §2
Series [4] deals with CD1 mice. Put plainly: Anticonvulsant activity, bemegride induced seizures. Particulars: Mus musculus; po.; read-out: Bemegride ED50. The format is in vivo. The procedure: as §2
Series [5] has as its system CD1 mice. Put plainly: Anticonvulsant activity, bicuculline induced seizures. The format is in vivo. To be noted: Mus musculus; po.; read-out: Bicuculline ED50. On the procedure:
as §2

Series [6] has as its system CD1 mice. Put plainly: Anticonvulsant activity, nicotine induced seizures. It counts as in vivo. Particulars: Mus musculus; po. On the procedure:
as §2

In series [7] the test system is CD1 mice. The series is described as follows: Anticonvulsant activity, 4-aminopyridine induced seizures. It counts as in vivo. Particulars: Mus musculus; po.; read-out: 4-AP ED50. On the procedure: as §2
Series [8] deals with CD1 mice. The series is described as follows: Anticonvulsant activity, 3-mercapto-propionic acid induced seizures. The format is in vivo. Particulars: Mus musculus; po.; read-out: 3-MPA ED50. On the procedure:
as §2

In series [9] the test system is CD1 mice. Put plainly: Muscle relaxant activity, inclined screen test. It counts as in vivo. Particulars: Mus musculus, ip.
Series [10] has as its system CD1 mice. Put plainly: Muscle relaxant activity, rotarod test. The format is in vivo. To be noted: Mus musculus, ip. On the technique in general: Falling from the rotarod earlier than controls is read as motor impairment.
In series [11] the test system is CD1 mice. The series is described as follows: Anti-tremor effect, oxotremorine induced tremor. It counts as in vivo. To be noted: Mus musculus; po., Litchfield-Wilcoxon, limits in brackets; read-out: ED50, tremor induced by Oxotremorin 1 mg/kg ip.
For series [12], the system named is CD1 mice. The series is described as follows: Anti-tremor effect, GYKI 20039 induced tremor. The format is in vivo. To be noted: Mus musculus; po., Litchfield-Wilcoxon, limits in brackets; read-out: ED50, tremor induced by GYKI 20039 10 mg/kg ip.
For series [13], the system named is Lewis rats. The series is described as follows: Autoimmune encephalomyelitis model, neurological (clinical) symptoms. It counts as in vivo. To be noted: Rattus norvegicus, po, 7.5 mg/kg p.o., female rats, read-out: Neurological symptoms (change compared to controls, %). The procedure:
The compounds were administered intraperitoneally twice a day for 8 days, starting on day 10 after immunization and with an observation period until symptoms were present. 5-15 animals were used in each group. Their weights were 160-180 g (Lewis rats, female) and 180-220 g (Lewis rats, male). The activity of the compounds was determined according to the symptom score values, and compared to those of the control group (see Table 6). Histopathological investigations were carried out on the brain stem, the spinal cord, and the sciatic nerve (Gijbels et al., J. Clin. Invest. 94:2177 (1994)) using 5-10 animal/group.
Compounds of the invention were further investigated in the autoimmune encephalomyelitis model in rats as outlined in this description before, with the variance that 10 animals were used in each group, of weights 140-160 g (Lewis rats, female).

For series [14], the system named is Lewis rats. Described as above. It counts as in vivo. Particulars: Rattus norvegicus, po, 3.75 mg/kg p.o., female rats, read-out: Neurological symptoms (change compared to controls, %).
The mark [15] stands for this setting: 0.5 h, 30′, read-out: MES 30′ ED50.
The mark [16] stands for this setting: 1 h, 60 min before induction, read-out: MES (MES 60′) ED50.

The pIC50 is the negative decadic logarithm of the IC50, by convention in mol/L. A word on the melting point: it is the temperature of the solid-liquid transition. As for `CCc1nnc(N2N=C(c3ccc(N)c(C)c3)c3cc4c(cc3C[C@H]2C)OCO4)s1` [Example 165, (R)-5-(4-Amino-3-methylphenyl)-7-(5-ethyl-1,3,4-thiadiazol-2-yl)-8-methyl-8,9-dihydro-7H-1,3-dioxolo-[4,5-h][2,3]benzodiazepine], the melting point fell in the range of 129 to 133 °C. Also, the negative logarithm of the IC50 (pIC50) in the series with AMPA receptors is 6.95. In addition, the negative logarithm of the IC50 (pIC50) in the series on AMPA/kainate receptors is 7.62. For the same compound, the ED50 with CD1 mice [1] (setting [15]) came out at 2.39 mg/kg. The ED50 in the series with CD1 mice [1] (setting [16]) is 3.99 mg/kg. For the same compound, the ED50 in the series on CD1 mice [2] worked out at 10.1 mg/kg. Further, the ED50 in the series on CD1 mice [3] is 10.2 mg/kg. Besides, the ED50 in the series on CD1 mice [4] was 10 mg/kg. Besides, the ED50 in the series on CD1 mice [5] was determined as 5.79 mg/kg. Also, the ED50 in the series on CD1 mice [6] turned out to be 18.6 mg/kg. The ED50 in the series with CD1 mice [7] was determined as 8.6 mg/kg. Besides, the ED50 with CD1 mice [8] turned out to be 8.53 mg/kg. This compound displayed an ED50 with CD1 mice [9] of 2.94 mg/kg. For the same compound, the ED50 in the series with CD1 mice [10] was determined as 0.91 mg/kg. The ED50 in the series with CD1 mice [11] was found to be 4.63 mg/kg. Moreover, the ED50 in the series with CD1 mice [12] is 5.34 mg/kg.
For `CCCc1nnc(N2N=C(c3ccc(N)c(C)c3)c3cc4c(cc3C[C@H]2C)OCO4)s1` [Example 166, (R)-5-(4-Amino-3-methylphenyl)-8-methyl-7-(5-propyl-1,3,4-thiadiazol-2-yl)-8,9-dihydro-7H-1,3-dioxolo[4,5-h][2,3]benzodiazepine], the melting point fell in the range of 150 to 154 °C. The pIC50 with AMPA receptors was 6.70. Also, the negative logarithm of the IC50 (pIC50) in the series on AMPA/kainate receptors was 7.55. In addition, in the series with CD1 mice [1] (setting [15]), the ED50 came out at 4.54 mg/kg. Further, the ED50 in the series on CD1 mice [1] (setting [16]) was determined as 4.01 mg/kg. In addition, the ED50 in the series on CD1 mice [2] amounted to 9.18 mg/kg. Besides, the ED50 with CD1 mice [3] was determined as 7.29 mg/kg. The ED50 with CD1 mice [4] is 7.77 mg/kg. For the same compound, the ED50 with CD1 mice [5] amounted to 13.3 mg/kg. This compound displayed an ED50 in the series on CD1 mice [6] of 21.8 mg/kg. In addition, the ED50 in the series on CD1 mice [7] was 6.81 mg/kg. Further, in the series on CD1 mice [8], the ED50 came out at 9.92 mg/kg. Further, in the series with CD1 mice [9], the ED50 stood at 3.27 mg/kg. This compound displayed an ED50 in the series with CD1 mice [10] of 0.86 mg/kg. Moreover, the change in vivo at 7.5 mg/kg in the series with Lewis rats [13] (0-8 day) is -51%. Also, the change in vivo at 7.5 mg/kg in the series on Lewis rats [13] (0-14 day) is -53%. The ED50 in the series on CD1 mice [11] was 2.74 mg/kg. Moreover, in the series on CD1 mice [12], the ED50 worked out at 4.54 mg/kg. Further, in the series on Lewis rats [14] (0-8 day), the change in vivo at 3.75 mg/kg is -6%. Also, the change in vivo at 3.75 mg/kg in the series with Lewis rats [14] (0-14 day) is -9%.
`COCc1nnc(N2N=C(c3ccc(N)c(C)c3)c3cc4c(cc3C[C@H]2C)OCO4)s1` [Example 168, (R)-5-(4-Amino-3-methylphenyl)-8-methyl-7-(5-methoxymethyl-1,3,4-thiadiazol-2-yl)-8,9-dihydro-7H-1,3-dioxolo-[4,5-h][2,3]benzodiazepine] had a melting point of 171 to 172 °C. In the series with AMPA receptors, the negative-log IC50 (pIC50) was 7.09. Further, in the series with AMPA/kainate receptors, the pIC50 is 7.96. Moreover, the ED50 in the series with CD1 mice [1] (setting [15]) came out at 2.21 mg/kg. Further, the ED50 with CD1 mice [1] (setting [16]) was 4.49 mg/kg. Further, the ED50 in the series with CD1 mice [2] was 6.9 mg/kg. Besides, in the series on CD1 mice [3], the ED50 came out at 10 mg/kg. Besides, the ED50 in the series with CD1 mice [4] is 6.7 mg/kg. Further, the ED50 with CD1 mice [5] stood at 10.6 mg/kg. Besides, the ED50 with CD1 mice [6] worked out at 17.7 mg/kg. In addition, in the series on CD1 mice [7], the ED50 came to 4.6 mg/kg. Moreover, in the series with CD1 mice [8], the ED50 stood at 4.62 mg/kg. For the same compound, the ED50 with CD1 mice [9] is 3.58 mg/kg. In the series with CD1 mice [10], this compound returned an ED50 of 0.8 mg/kg. The change in vivo at 7.5 mg/kg with Lewis rats [13] (0-8 day) was -55%. For the same compound, the change in vivo at 7.5 mg/kg in the series on Lewis rats [13] (0-14 day) was -56%. Further, the ED50 in the series on CD1 mice [11] came to 3.29 mg/kg. The ED50 in the series with CD1 mice [12] is 4.11 mg/kg. Besides, the change in vivo at 3.75 mg/kg in the series on Lewis rats [14] (0-8 day) is -16%. The change in vivo at 3.75 mg/kg with Lewis rats [14] (0-14 day) was -23%.
Regarding `Cc1nnc(N2N=C(c3ccc(N)c(Cl)c3)c3cc4c(cc3C[C@H]2C)OCO4)s1` [Example 182, (R)-5-(4-Amino-3-chlorophenyl)-8-methyl-7-(5-methyl-1,3,4-thiadiazol-2-yl)-8,9-dihydro-7H-1,3-dioxolo-[4,5-h][2,3]benzodiazepine], the melting point lay in the range of 98 to 100 °C. For the same compound, the pIC50 in the series on AMPA receptors is 7.70. For the same compound, the negative logarithm of the IC50 (pIC50) in the series with AMPA/kainate receptors is 7.51. The ED50 with CD1 mice [1] (setting [15]) is 5.08 mg/kg. Also, in the series on CD1 mice [1] (setting [16]), the ED50 is 6.17 mg/kg. For the same compound, in the series with CD1 mice [2], the ED50 was determined as 8.37 mg/kg. In addition, the ED50 in the series on CD1 mice [3] turned out to be 5.9 mg/kg. Further, in the series on CD1 mice [4], the ED50 amounted to 7.94 mg/kg. Moreover, in the series on CD1 mice [5], the ED50 came to 8.44 mg/kg. This compound showed an ED50 in the series with CD1 mice [6] of 24.2 mg/kg. Moreover, the ED50 with CD1 mice [7] was found to be 5.44 mg/kg. Also, the ED50 in the series with CD1 mice [8] came out at 7.57 mg/kg. The compound also displayed an ED50 with CD1 mice [9] of 5.84 mg/kg. The compound also gave an ED50 in the series on CD1 mice [10] of 2.61 mg/kg. The ED50 in the series with CD1 mice [11] was 2.66 mg/kg. The ED50 in the series with CD1 mice [12] worked out at 3.64 mg/kg.
